Results reported in patent publication US8178654B2, “Estrogen receptor intramolecular folding systems, estrogen receptor intramolecular folding sensors, methods of use thereof, methods of detecting ER ligands, and methods of detecting ER agonists and antagonists” (Stanford University, priority 2006, dated 2012).

Tests used:
[1] = biological target: T1, hER281-549 (human estrogen receptor alpha ligand binding domain amino acids 281-549) (Homo sapiens, UniProt P03372, G400V); experiment: Ligand-induced intramolecular folding split RLUC complementation, N-RLUC-hER281-549-C-RLUC in transfected cells; type: cell-based; conditions: for ligand-induced RLUC complementation signal (in words): transfected cells, 1 μM ligand, 18 hours
T1 construct: expressed in transfected cells; host or cells: 293T (transient); also transfected MCF7 and MDA-MB231
T1 sequence (P03372 281-549 G400V): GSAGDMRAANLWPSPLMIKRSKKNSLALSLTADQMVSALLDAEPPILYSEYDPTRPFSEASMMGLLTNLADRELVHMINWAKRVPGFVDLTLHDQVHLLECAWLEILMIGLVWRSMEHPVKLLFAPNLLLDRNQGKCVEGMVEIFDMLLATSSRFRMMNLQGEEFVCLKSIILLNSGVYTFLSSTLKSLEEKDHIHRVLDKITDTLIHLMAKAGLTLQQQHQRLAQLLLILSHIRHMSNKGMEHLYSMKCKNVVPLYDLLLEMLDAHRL
Description: (§1) For transfection, 200 ng DNA/well were used in 12 well culture plates. Volumes of Lipofectamine were as recommended by the manufacturer. The co-transfection of 10 ng/well Fluc DNA served as control for normalizing transfection. The cells were assayed after 18 hours of incubation at 37° C. with 5% CO2. The luminometry assay for Renilla Luciferase activity was performed as per protocol published previously. In brief, the cells were lysed in 200 μl of 1× passive lysis buffer (Promega, Madison, Wis.) by shaking for 15 min at room temperature. The cell lysates were centrifuged for 5 min at 10,000 rpm at 4° C. Twenty μl of supernatants were assayed by adding 1 μg of substrate coelenterazine in 100 μl of 0.05M sodium phosphate buffer (pH 7.0) followed by photon counting in the luminometer (Turner Designs, model T 20/20, Sunnyvale, Calif.) for 10 s. The readings were normalized by measuring the protein concentration in the cell lysates and also by measuring the FLUC activity. Activity of RLUC was represented as normalized relative light units (RLU) per microgram of protein.
The cells were assayed for RLUC activity after 18 hours of incubation. The results were normalized as mentioned in the previous experiments.
The results were normalized as mentioned in the previous experiments.
(§2) The ligand agonists and antagonists specific intramolecular folding were studied in ER positive and negative cell lines. […] The cells exposed to solvent DMSO served as control. The same samples were analysed by Western blot for the detection of the transfected protein level using anti-RLUC antibody using the method mentioned above.

hERG521R = hERG521R (Homo sapiens, UniProt P03372, G400V/G521R); conditions: mutant human ER
Description: as §1

[2] = biological target: T2, fusion protein N-RLUC-hER281-549-C-RLUC in 293T cells (Homo sapiens, UniProt P03372, G400V); experiment: Western blot of sensor fusion protein level in transfected 293T cells (anti-RLUC antibody); type: cell-based; conditions: 1 μM ligand, 18 hours
T2 construct: expressed in transfected cells; host or cells: 293T (transient)
T2 sequence (P03372 281-549 G400V): T1 sequence (P03372 281-549 G400V)
Description: as §2

Sequence of hERG521R (P03372 281-595 G400V/G521R): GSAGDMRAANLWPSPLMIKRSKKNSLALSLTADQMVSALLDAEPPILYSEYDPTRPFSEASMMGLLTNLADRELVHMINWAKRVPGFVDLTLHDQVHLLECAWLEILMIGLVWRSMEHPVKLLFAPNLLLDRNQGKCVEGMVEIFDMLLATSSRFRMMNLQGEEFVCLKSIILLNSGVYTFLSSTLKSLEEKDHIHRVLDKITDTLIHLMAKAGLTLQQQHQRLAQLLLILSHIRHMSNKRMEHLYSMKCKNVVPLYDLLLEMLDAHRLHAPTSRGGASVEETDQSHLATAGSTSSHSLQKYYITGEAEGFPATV

Compound	ligand-induced RLUC complementation signal (in words) [1]	expressed fusion (sensor) protein level [2]	further results
4-hydroxytamoxifen			RLUC complementation at different time points (in words) [1]: significant (P<0.0015) level of RLUC complementation; complemented Renilla Luciferase activity relative to cells before exposed to ligand [1]: 80±15 times; concentration dependence of RLUC activity (in words) [1]: increased RLUC activity; receptor mediated RLUC complementation (hERG521R): 3-5%
O=C(O[C@@H]1Cc2c(O)cc(O)cc2O[C@@H]1c1cc(O)c(O)c(O)c1)c1cc(O)c(O)c(O)c1 [Epigallocatechin gallate]	not significantly different from cells transfected and not exposed to any ligands	significant reduction in the expressed fusion protein levels	
N.N.[Cl][Pt][Cl] [Cisplatinum]	not significantly different from cells transfected and not exposed to any ligands	significant reduction in the expressed fusion protein levels	
C[C@]12CC[C@@H]3c4ccc(O)cc4C[C@@H](CCCCCCCCC[S+]([O-])CCCC(F)(F)C(F)(F)F)[C@H]3[C@@H]1CC[C@@H]2O (stereo partly shown) [ICI182,780]		no significant level of degradation	
COc1cccc2c1C(=O)c1c(O)c3c(c(O)c1C2=O)C[C@@](O)(C(=O)CO)C[C@@H]3O[C@H]1C[C@H](N)[C@H](O)[C@H](C)O1 [Doxirubicin]	not significantly different from cells transfected and not exposed to any ligands		
